Experimental data as given in patent EP3766544A1 (Centre Hospitalier Regional Universitaire de Lille, priority 2019, dated 2021).

Experiments:
[1] = molecular target: T1, hPD-L1-eGFP (Homo sapiens, UniProt Q9NZQ7); experiment: Microscale thermophoresis (MST) PD-L1 binding assay; details: CHO-K1 cell lysate, hPD-L1-eGFP 35 nM, PBS-T buffer (0.05% Tween 20)
T1 construct: expressed in transfected cells; host or cells: CHO-K1 (cell lysate used)
Text: The quantity of cells for this protocol can vary from 10 to 40 million. […] Different types of additives such as Tween 20, various MgCl2 concentrations, BSA have been tested to avoid sample aggregation and different types of capillaries have been investigated to reduce the adsorption within capillaries. Various buffers have also been tested and are listed in the related section. The fluorescence measurement is made using a small quantity of cell lysate within a capillary chosen among different available capillaries: standard, premium, hydrophilic or hydrophilic. The highest concentration of ligand must be at least 20 times higher than the expected dissociation constant of the interaction under study. However, the lowest concentration of ligand must be lower than the concentration of the fluorescent protein. An online tool created by NanoTemper® can be used and allows determining the range of ideal concentration. The concentration of the fluorescent protein can be determined using a GFP dosage kit (Abnova KA0911) or a calibration curve.
CHO-K1 cells were transfected with the Cell Line Nucleofector® Kit T, Program U-023 and the pcDNA 3.1 hygro plasmid expressing PD-1-eGFP. 2 µg of plasmid was transfected in one million CHO-K1 cells suspended in 100 µL Nucleofector solution. Cells were analyzed 48 hours post Nucleofection® by flow cytometry. Cells are put under the appropriate selective pressure which will only allow growth of cells containing the DNA insert. After three weeks of selective pressure, the multiparametric analysis of transfected CHO-K1 cells over-expressing mPD-1-eGFP allows defining sub-populations which can be separated from the global population. The population of cells strongly expressing eGFP is analyzed by flow cytometry and kept for MicroScale Thermophoresis analysis. The exact same protocol from transfection to cytometry analysis is lead on CHO-K1 cells expressing the hPD-L1-eGFP protein.
MST was used to establish the binding affinity between PD-L1-eGFP and Compounds. Cell lysate was diluted in PBS-T buffer (0.05% Tween 20) to a final concentration at which the fluorescent signals of the GFP proteins were similar and above the typical detection limit of the Monolith NT.115 instrument (NanoTemper Technologies). […] For the binding between hPD-L1-eGFP with compounds, several dilutions were made between 1mM to 1 nM to cover a wide concentration range. Ten microliters of cell lysate are added to 10 µL of each ligand solution. Nivolumab was taken as reference.

[2] = molecular target: T2, interaction between PD-1 and PD-L1 (Homo sapiens, UniProt Q9NZQ7); experiment: FRET assay (PD-1-YFP / SHP-2-CFP in CHO-K1 cells, activation with PD-L1); assay type: cell-based; details: co-transfected PD-1-SHP2 CHO-K1 cells, after addition of PD-L1 (10 µM)
T2 construct: expressed in transfected cells; host or cells: CHO-K1 co-transfected with PD-1-YFP and SHP-2-CFP
Text: Energy transfer between fluorescent molecules (FRET) is a technique that allows visualizing interactions between 2 fluorescent molecules. A fluorescent molecule, called "donor", will transfer its energy, once excited, to another fluorescent molecule called "acceptor". The fluorescence of the donor decreases while the acceptor's one increases (see Figure 1).
A model was developed using CHO-K1 cells involving overexpression of proteins of interest. It involves the expression of a PD-1-YFP fluorescent protein and a second fluorescent protein SHP-2-CFP (phosphatase recruited during the interaction between PD-1 and PD-L1).
A Spectramax i3 is configured according to the selected fluorochromes with their excitation and emission spectra. Endpoint reading is performed, at the center of the well; the reading time is 2 minutes for a 96-well plate.
For this test, a 96-well flat-bottomed white plate is required. All mixes introduced into the plate are made of triplicate. The negative control is provided by the CHO transfected by the void plasmid, the positive control is provided by CHO transfected with a plasmid containing the YFP-CFP fusion protein making it possible to mimic the FRET phenomenon. […] It is also necessary to remove the background noise, that is to say the FRET without activation with PD-L1. […] Nivolumab was taken as positive control of interaction's inhibitions.

[3] = In vitro spread test (CFSE CellTrace cell proliferation, flow cytometry); assay type: cell-based; details: IC50 of proliferation, flow cytometry D0 to D3
Text: The CellTrace™ Cell Proliferation Kits provide versatile and well-retained cell tracing reagents in a convenient and easyto-use form. Each kit contains a CellTrace™ reagent in single-use vials to permit small scale experiments without preparing excess quantities of stock solution. The CellTrace™ reagents readily diffuse into cells and bind covalently to intracellular amines, resulting in stable, well-retained fluorescent staining that can be fixed with aldehyde fixatives. Excess unconjugated reagent passively diffuses to the extracellular medium, where it can be quenched with complete media and washed away. The kit is supplied by ThermoFisher Scientific.
• 1. Number of days on which the manipulation is done: 3 (from D0 to D3: 4 passages in cytometry) • 2. Volume of cell suspension needed: 2.5ml (0.5ml / day) • 3. Number of cells needed: 2.5mlx0.5M / ml = 1.25M per cell line. • 4. Number the cells and check their viability. • 5. Prepare the desired number of cells. • 6. Centrifuge, resuspend at a 1M/mL concentration in PBS (the probe binds to the proteins of the medium) • 7. Add 0.5µM of CellTrace (dilute 1/10 of the stock solution, add 1 / 1000th in the PBS-cell mix: take 1µl of probe at the main concentration, add 9µL of PBS) • 8. Incubate for 20 minutes at 37 ° C in the dark. • 9. Add 5 volumes of medium to capture the excess of probe (1.2x5 = 6ml) • 10. Incubate for 5 minutes at 37 ° C. • 11. Centrifuge, resuspend the cells at the desired concentration of 0.5M / ml in preheated medium. Plate 24 wells. • 12. Establish the J0 at least 5h after marking. • 13. Flow cytometry is then performed to evaluate cell division and to determine an IC50 of proliferation using Graphpad.

T2 sequence (Q9NZQ7 19-238 limits assumed): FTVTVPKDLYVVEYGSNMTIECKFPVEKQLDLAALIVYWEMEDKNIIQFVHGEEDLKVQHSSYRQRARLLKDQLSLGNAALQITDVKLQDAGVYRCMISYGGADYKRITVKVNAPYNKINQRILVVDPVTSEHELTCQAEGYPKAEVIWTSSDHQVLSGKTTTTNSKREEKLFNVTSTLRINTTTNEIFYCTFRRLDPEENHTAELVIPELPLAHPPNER
T1 sequence (Q9NZQ7 19-290): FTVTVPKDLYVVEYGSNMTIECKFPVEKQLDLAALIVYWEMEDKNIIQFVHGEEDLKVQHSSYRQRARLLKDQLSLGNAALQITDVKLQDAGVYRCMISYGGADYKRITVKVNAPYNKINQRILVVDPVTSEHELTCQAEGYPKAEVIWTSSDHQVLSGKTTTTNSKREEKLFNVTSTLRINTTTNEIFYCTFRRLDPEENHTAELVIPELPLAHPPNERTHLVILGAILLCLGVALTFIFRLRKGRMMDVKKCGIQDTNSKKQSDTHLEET

Row | Compound | Kd [1] | IC50 [2] | IC50 [3] | In vitro spread test [3]
1 | O=C1CC(C2CCCCCC2)=NN1c1ccc(Cl)cc1Cl | 80000 ± 12000 nM | 67000 ± 9000 nM | – | –
2 | O=C1CC(c2ccccc2)=NN1c1ccc(Cl)cc1Cl | 14000 ± 3000 nM | 9000 ± 5000 nM | – | –
3 | COc1ccc(C2=NN(c3cc(Cl)ccc3Cl)C(=O)C2)cc1 | 8000 ± 2000 nM | 12000 ± 3000 nM | – | –
4 | COc1ccc(C2=NN(c3ccccn3)C(=O)C2)cc1 [ALIPD19, 3-(4-Methoxyphenyl) -1-(pyridin-2-yl)-4,5-dihydro-1H-5-pyrazolone] | 83 nM | 17 nM | 75 nM | –
5 | COc1ccc(C2=NN(c3ccc(OC)cc3)C(=O)C2)cc1 [ALIPD24, 1-(4-methoxyphenyl)-3-(4-methoxyphenyl)-4,5-dihydro-1H-5-pyrazolone] | 375 ± 43 nM | 230 ± 35 nM | – | No effect
6 | O=C1CC(c2ccc(Cl)cc2Cl)=NN1c1ccccn1 [ALIPD26, 3-(2,4-Dichlorophenyl)-1-(pyridin-2-yl)-4,5-dihydro-1H-5-pyrazolone] | 110 ± 17 nM | 98 ± 12 nM | – | –
7 | O=C1CC(C23CC4CC(CC(C4)C2)C3)=NN1c1cc(Cl)cc(Cl)c1 [ALIPD28, 3-(Adamantan-1-yl)-1-(3,5-dichlorophenyl)-4,5-dihydro-1H-5-pyrazolone] | 890 ± 75 nM | 785 ± 87 nM | – | –
8 | O=C1CC(c2ccc([N+](=O)[O-])cc2)=NN1c1ccc(Cl)cc1Cl [ALIPD33, 1-(2,4-Dichlorophenyl)-3-(4-nitrophenyl)-4,5-dihydro-1H-5-pyrazolone] | 72000 ± 17000 nM | 43000 ± 6000 nM | – | –
9 | COc1ccc(C2=NN(c3ccc(Cl)cc3Cl)C(=O)C2)cc1OC [ALIPD52, 1-(2,4-Dichlorophenyl)-3-(3,4-dimethoxyphenyl)-4,5-dihydro-1H-5-pyrazolone] | 212 ± 23 nM | 196 ± 17 nM | – | –
10 | O=C1CC(c2cccc(C(F)(F)F)c2)=NN1c1ccccn1 [ALIPD58, 1-(2-pyridyl)-3-[3-(trifluoromethyl)phenyl]-4,5-dihydro-1H-5-pyrazolone] | 1200 nM | 1100 nM | – | –
11 | O=C1CC(c2ccc(Cl)cc2)=NN1c1ccccn1 [ALIPD59, 3-(4-chlorophenyl)-1-(2-pyridyl)-4,5-dihydro-1H-5-pyrazolone] | 27000 ± 5000 nM | 33000 ± 7000 nM | – | –
12 | COc1ccccc1C1=NN(c2ccccn2)C(=O)C1 [ALIPD60, 3-(2-methoxyphenyl)-1-(2-pyridyl)-4,5-dihydro-1H-5-pyrazolone] | 23 nM | 7 nM | – | –
13 | COc1ccc(C2=NN(c3cc(Cl)cc(Cl)c3)C(=O)C2)cc1 [ALIPX02, 1-(3,5-Dichlorophenyl)-3-(4-methoxyphenyl)-4,5-dihydro-1H-5-pyrazolone] | 18000 ± 3000 nM | 15000 ± 5000 nM | – | –
14 | COc1ccc(C2=NN(c3ccc(Cl)cc3Cl)C(=O)C2)cc1 [ALIPX05, 1-(2,4-Dichlorophenyl)-3-(4-methoxyphenyl)-4,5-dihydro-1H-5-pyrazolone] | 68000 ± 7000 nM | 51000 ± 3000 nM | – | –
15 | O=C1CC(C23CC4CC(CC(C4)C2)C3)=NN1c1ccccn1 [ALIPX57, 3-(Adamantan-1-yl)-1-(pyridin-2-yl)-4,5-dihydro-1H-5-pyrazolone] | 340 ± 27 nM | 4 ± 2 nM | 192 nM | –
